Read-outs that look alike come from different tables or passages of the source.
What was measured:
[1] = test system: WT MelBSt expressed in E. coli DW2 cells; assay: [3H]melibiose transport assay in intact E. coli DW2 cells, CCCP effect, WT MelBSt; assay type: cell-based, Salmonella enterica serovar Typhimurium
Procedure: (§1) E. coli DW2 cells transformed with a given plasmid were grown in Luria-Bertani (LB) broth with 100 mg/L ampicillin in a 37 °C shaker. The overnight cultures were diluted by 5% to fresh LB broth with 0.5% glycerol and 100 mg/L ampicillin and shaken at 30 °C for 5 h. The cells were washed with 50-ml 100 mM KPi, pH 7.5 three times, followed by washing with the assay buffer (100 mM KPi, pH 7.5, 10 mM MgSO4). The cell pellets were resuspended and adjusted to A420 = 10 (∼0.7 mg proteins/ml) with the assay buffer. The transport assay was performed at 0.4 mM [^3H]melibiose (specific activity of 10 mCi/mmol) in the absence of Na^+ and Li^+ or the presence of Na^+ or Li^+ as described ([4], [35]) to test the three transport model coupling to H^+, Na^+, or Li^+, respectively. The transport time courses were carried out by quenching the cells at zero, 5 s, 10 s, 30 s, 1 m, 2 m, 5 m, 10 m, and 30 m by dilution and fast filtration. The filters were subjected to radioactivity measurements using a liquid scintillation counter.
(§2) The CCCP effect on the transport activity at varied pH conditions in the absence of Na^+ and Li^+ was conducted by incubating the extensively washed Na^+-free, Li^+-free cells with 10 μM CCCP for 10 min prior to the transport assay.
(§3) E. coli DW2 cells expressing the WT MelBSt, D55C, or D59C mutants were prepared as described above. […]

[2] = test system: D55C MelBSt expressed in E. coli DW2 cells; assay: [3H]melibiose transport assay in intact E. coli DW2 cells, CCCP effect, D55C MelBSt; assay type: cell-based, Salmonella enterica serovar Typhimurium; details: D55C mutant
Procedure: as §1, §2, §3

WT MelBSt [3] = molecular target: T1, WT MelBSt (Salmonella typhimurium, UniProt P30878); details: cited from earlier work
T1 construct: His10 (C); made in house; host or cells: E. coli DW2

D55C MelBSt mutant = molecular target: T2, D55C MelBSt mutant (Salmonella typhimurium, UniProt P30878, D55C); assay type: binding, Salmonella enterica serovar Typhimurium; details: for Cation binding by ITC: 40 mM NaCl or LiCl titrant, absence or presence of saturating melibiose; for Kd: ITC 25 °C
T2 construct: His10 (C); made in house; host or cells: E. coli DW2
Procedure: All ITC ligand-binding assays were performed with the TA Instruments (Nano-ITC device) as described ([15]), which yields the exothermic binding as a positive peak. […] MelBSt protein samples were buffer-matched to the assay buffer by dialysis.
(§4) All samples were degassed using a TA Instruments Degassing Station (model 6326) for 15 min. During the titration, the heat changes were collected at 25 °C, and data processing was performed with the NanoAnalyze (version 3.7.5 software) provided with the instrument. The normalized heat changes were subtracted from the heat of dilution elicited by the last few injections, where no further binding occurred, and the corrected heat changes were plotted against the mole ratio of titrant versus titrand. The binding association constant (Ka) values were obtained by fitting the data using the one-site independent-binding model included in the NanoAnalyze software (version 3.7.5).

WT MelBSt [4] = molecular target: T1, WT MelBSt; assay: ITC ligand-binding assay, purified WT MelBSt; set-up: species or system Salmonella enterica serovar Typhimurium; details: for Kd: ITC, read-out: Kd of melibiose binding
Procedure: All ITC ligand-binding assays were performed with the TA Instruments (Nano-ITC device) as described ([15]), which yields the exothermic binding as a positive peak. In a typical experiment, the titrand (MelBSt) placed in the ITC Sample Cell was titrated with the specified titrant Na^+, Li^+, melibiose, or α-NPG (placed in the Syringe) in the assay buffer by an incremental injection of 2-μL aliquots at an interval of 300 s at a constant stirring rate of 250 rpm (nano-ITC). MelBSt protein samples were buffer-matched to the assay buffer by dialysis. For measuring Na^+ or Li^+ binding, 100 mM choline chloride was supplemented into the Na^+-free buffer.
as §4

Asp59 = Asp59 (UniProt position 59, WDAINDPIMGW); assay: ITC; details: cited from earlier work
[5] = 10 μM CCCP, all tested external pH conditions, zero, 2 m, 10 m
[6] = cells pre-incubated with 10 μM CCCP, 0.4 mM melibiose, no Na+ and Li+, pH 7.5
[7] = pH 7.5, 100 mM Na+ vs no Na+, from Kd values of ref [8]

For `N#CC(C#N)=NNc1cccc(Cl)c1` [CCCP, carbonyl cyanide m-chlorophenylhydrazone], the “CCCP effect on melibiose transport at varied external pH” value [1, 5] was “completely abolished”, the “CCCP effect on H+-coupled melibiose transport activity” value [1, 6] was “completely inhibited” and the “CCCP effect on melibiose transport at varied external pH” value [2, 5] was “completely abolished”. The “CCCP effect on H+-coupled melibiose transport activity” value [2, 6] was “completely inhibited”.

In the case of `[H+]` [H^+], the “absolute dissociation constant for H+ (pKa value)” value (WT MelBSt [3]; absence of melibiose, ref [15]) is listed as 6.25, the Kd (WT MelBSt [3]; absence of melibiose, ref [15], read-out: absolute KD(H+)) is listed as 0.56 µM and the Cooperativity number (WT MelBSt [3]; melibiose and H+, based on the effect of sugar on the H+ affinity, ref [15]) is listed as “less than 2”. For the same compound, the “absolute dissociation constant for H+ (pKa value)” value (WT MelBSt [3]; presence of melibiose, ref [15]) was 6.5 and the Kd (WT MelBSt [3]; presence of melibiose, ref [15], read-out: absolute KD(H+)) was 0.26 µM.

For `[Li+]` [Li^+], the “Cooperativity number (ratio of Kd values of melibiose and cation in absence or presence of the other)” value (WT MelBSt [3]; melibiose and Li+, ref [6]) is given as about 5 and the “Cation binding by ITC” value (D55C MelBSt mutant) is given as “eliminated the binding”.

For `OC[C@H]1O[C@H](OCC2O[C@@H](O)[C@H](O)[C@@H](O)[C@@H]2O)[C@H](O)[C@@H](O)[C@H]1O` (stereo partly drawn) [Melibiose, melibiose], the Kd (WT MelBSt [3]; WT MelBSt, pH 7.5, 100 mM Na+, ITC 25 °C, ref [8], read-out: Kd of melibiose binding) is listed as 1090 ± 60 µM, the Kd (WT MelBSt [3]; WT MelBSt, pH 7.5, no Na+, ITC 25 °C, ref [8], read-out: Kd of melibiose binding) is listed as 9280 ± 230 µM and the Kd (WT MelBSt [4]; pH 6.25, Na+-free buffer) is listed as 6190 ± 590 µM. The “Affinity change of melibiose with pH” value (WT MelBSt [4]; pH 6.25 vs pH 8.5, no Na+) was “+1.37-fold”, the “Affinity change of melibiose with Na+” value (WT MelBSt [4]; [7]) was “+8.51-fold” and the “Affinity change of melibiose with Na+” value (WT MelBSt [4]; pH 7.5, 100 mM Na+ vs no Na+, from Kd values of ref [8], listed as melibiose) was 8.51 fold. For the same compound, the Kd (WT MelBSt [4]; pH 8.5, Na+-free buffer) was 8500 ± 210 µM, the “Affinity change of melibiose with Na+” value (D55C MelBSt mutant; pH 7.5, 100 mM Na+ vs no Na+) was “+1.14-fold” and the Kd (D55C MelBSt mutant; pH 7.5, 100 mM Na+, read-out: Kd of melibiose binding) was 5090 ± 150 µM. It also gave a Kd (D55C MelBSt mutant; pH 7.5, no Na+, read-out: Kd of melibiose binding) of 5820 ± 460 µM.

In the case of `[Na+]` [Na^+], the “Cooperativity number (ratio of Kd values of melibiose and cation in absence or presence of the other)” value (WT MelBSt [3]; melibiose and Na+, ref [15]) is listed as “approximately 8” and the “Cation binding by ITC” value (D55C MelBSt mutant) is listed as “eliminated the binding”.

For `O=[N+]([O-])c1ccc(O[C@H]2O[C@H](CO)[C@H](O)[C@H](O)[C@H]2O)cc1` [α-NPG, 4-nitrophenyl-α-D-galactopyranoside], the Kd (WT MelBSt [3]; WT MelBSt, pH 7.5, 100 mM Na+, ITC, ref [8], read-out: Kd of α-NPG binding) is given as 25.7 ± 4.42 µM, the Kd (WT MelBSt [3]; WT MelBSt, pH 7.5, no Na+, ITC, ref [8], read-out: Kd of α-NPG binding) is given as 43.2 ± 0.62 µM and the “Affinity change of α-NPG with Na+” value (WT MelBSt [4]; [7]) is given as “+ 1.68-fold”. It also gave a Kd (D55C MelBSt mutant; pH 7.5, 100 mM Na+, read-out: Kd of α-NPG binding) of 13.5 ± 1.38 µM and a Kd (D55C MelBSt mutant; pH 7.5, no Na+, read-out: Kd of α-NPG binding) of 15.1 ± 1.86 µM.

For “Melibiose permease MelB (MelBSt) (Salmonella enterica serovar Typhimurium)”, the pKa (Asp59; Melibiose present (per the Introduction). The Discussion sentence does not specify the sugar state.) is listed as “approximately 6.5” and the pKa (Asp59; No melibiose, no Na+/Li+ bound) is listed as 6.25.
